Experimental data published in the NIST ThermoML archive (doi:10.1016/j.jct.2007.08.005).

Key:
[1] = 308.15 K, 101.33 kPa, Liquid; for speed of sound: Sing-around technique in a fixed-path interferometer; for mass density: Vibrating tube method
[2] = xn = mol fraction of the nth substance listed; settings: 308.15 K, 101 kPa, Liquid; for excess molar volume: Direct dilatometry; for speed of sound: Sing-around technique in a fixed-path interferometer

OCCCCCO [1,5-pentanediol]
[1]
Settings | mass density [kg/m3] | speed of sound [m/s] | viscosity [mPa·s]
– | 974.3 | 1566.1 | 64

O=C1CCCN1 [2-pyrrolidinone]
[1]
Settings | mass density [kg/m3] | speed of sound [m/s] | viscosity [mPa·s]
– | 1097.14 | 1600 | 8.922

OCCCO [propan-1,3-diol]
[1]
Settings | mass density [kg/m3] | speed of sound [m/s] | viscosity [mPa·s]
– | 1042.7 | 1604.5 | 26.44

OCCCCCO [1,5-pentanediol] + O=C1CCCN1
[2]
Settings | excess molar volume [m3/mol] | speed of sound [m/s] | viscosity [mPa·s]
x1 = 0.0022 | 1e-09 | – | –
x1 = 0.009 | 3e-09 | – | –
x1 = 0.0129 | 5e-09 | – | –
x1 = 0.0168 | 6e-09 | – | –
x1 = 0.0269 | 1e-08 | – | –
x1 = 0.0298 | – | 1597.5 | 9.401
x1 = 0.0326 | 1.5e-08 | – | –
x1 = 0.0454 | 1.7e-08 | – | –
x1 = 0.0514 | – | 1595.7 | 9.774
x1 = 0.0619 | 2.7e-08 | – | –
x1 = 0.0915 | 3.4e-08 | – | –
x1 = 0.1017 | – | 1591.8 | 10.74
x1 = 0.1149 | 4e-08 | – | –
x1 = 0.1375 | 4.4e-08 | – | –
x1 = 0.1536 | – | 1588.7 | 11.8
x1 = 0.1895 | 5.2e-08 | – | –
x1 = 0.2008 | – | 1586.9 | 12.89
x1 = 0.2539 | 5.9e-08 | – | –
x1 = 0.293 | 6.4e-08 | – | –
x1 = 0.2942 | – | 1583.5 | 15.32
x1 = 0.3268 | 6.7e-08 | – | –
x1 = 0.3769 | 7e-08 | – | –
x1 = 0.3886 | – | 1580.9 | 18.07
x1 = 0.4209 | 7e-08 | – | –
x1 = 0.4564 | 7.1e-08 | – | –
x1 = 0.479 | – | 1578.8 | 21.15
x1 = 0.5091 | 7e-08 | – | –
x1 = 0.5407 | 6.9e-08 | – | –
x1 = 0.5779 | 6.6e-08 | – | –
x1 = 0.582 | – | 1577.1 | 24.71
x1 = 0.601 | 6.1e-08 | – | –
x1 = 0.6363 | 5.6e-08 | – | –
x1 = 0.6673 | 5.3e-08 | – | –
x1 = 0.6827 | – | 1575.3 | 29.13
x1 = 0.7035 | 4.7e-08 | – | –
x1 = 0.7347 | 4.2e-08 | – | –
x1 = 0.7812 | – | 1573 | 36.21
x1 = 0.7879 | 3.3e-08 | – | –
x1 = 0.822 | 2.8e-08 | – | –
x1 = 0.8319 | – | 1571.6 | 41.2
x1 = 0.8461 | 2.6e-08 | – | –
x1 = 0.8694 | 2.3e-08 | – | –
x1 = 0.8947 | 1.8e-08 | – | –
x1 = 0.9095 | – | 1569.4 | 50.56
x1 = 0.9143 | 1.3e-08 | – | –
x1 = 0.9392 | – | 1568.6 | 54.65
x1 = 0.9428 | 1.1e-08 | – | –
x1 = 0.9583 | 7e-09 | – | –
x1 = 0.9749 | – | 1567.3 | 59.95
x1 = 0.9783 | 3e-09 | – | –

OCCO [1,2-ethanediol]
[1]
Settings | speed of sound [m/s] | viscosity [mPa·s]
– | 1633.4 | 11.35
